# Key:
# TRPC5 = biological target: T1, TRPC5 (Homo sapiens, UniProt Q9UL62); experiment: HEK293 whole-cell patch clamp recording, TRPC5 inhibition assay; format: cell-based; conditions: for IC50: dose response, whole cell patch clamp, HEK cells expressing TRPC5, Rilu (3 μM)
# T1 construct: expressed in transfected cells; host or cells: HEK293
# T1 sequence (Q9UL62 1-973): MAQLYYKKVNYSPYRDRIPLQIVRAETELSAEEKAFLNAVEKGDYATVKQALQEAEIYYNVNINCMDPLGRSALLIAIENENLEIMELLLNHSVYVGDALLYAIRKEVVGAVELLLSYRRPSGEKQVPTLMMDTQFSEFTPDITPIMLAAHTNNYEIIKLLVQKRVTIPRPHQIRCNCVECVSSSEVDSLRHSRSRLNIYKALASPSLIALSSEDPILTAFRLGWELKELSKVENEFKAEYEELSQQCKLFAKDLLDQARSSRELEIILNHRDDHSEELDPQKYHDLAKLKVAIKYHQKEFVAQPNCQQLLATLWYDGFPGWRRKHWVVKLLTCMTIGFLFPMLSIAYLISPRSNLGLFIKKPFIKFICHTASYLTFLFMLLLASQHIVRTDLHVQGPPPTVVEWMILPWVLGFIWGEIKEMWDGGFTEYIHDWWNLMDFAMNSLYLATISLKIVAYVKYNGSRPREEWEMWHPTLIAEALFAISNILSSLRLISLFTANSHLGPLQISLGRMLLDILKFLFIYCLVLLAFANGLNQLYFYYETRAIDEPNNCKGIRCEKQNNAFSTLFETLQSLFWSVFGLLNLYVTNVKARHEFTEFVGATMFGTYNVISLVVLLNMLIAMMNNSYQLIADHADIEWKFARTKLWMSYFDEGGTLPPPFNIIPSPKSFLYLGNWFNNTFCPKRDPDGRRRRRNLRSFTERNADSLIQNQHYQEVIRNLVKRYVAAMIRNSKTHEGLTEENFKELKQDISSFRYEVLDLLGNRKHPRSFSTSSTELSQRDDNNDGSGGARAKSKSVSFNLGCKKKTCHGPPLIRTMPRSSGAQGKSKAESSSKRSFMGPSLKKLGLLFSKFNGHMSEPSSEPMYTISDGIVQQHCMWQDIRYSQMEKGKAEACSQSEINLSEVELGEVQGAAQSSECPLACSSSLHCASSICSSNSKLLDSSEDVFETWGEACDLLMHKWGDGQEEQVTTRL
# Procedure: TRPC4, TRPC5, and TRPC6 inhibition assay: HEK293 whole-cell recordings Whole-cell patch clamp recording was performed 16 h after transfection. The bath solution contained (in mM): 140 NaCl, 5 KCl, 10 HEPES, 2 MgCl2, 2 CaCl2, 10 glucose with pH7.4 adjusted with NaOH. The intracellular solution contained (in mM): 140 KCl, 5 EGTA, 10 HEPES, 2 MgCl2 with pH7.4 adjusted with KOH. The patch pipettes were made using a two-step-protocol (P-97, Sutter Instrument). The pipette resistance was maintained between 4 to 8 MΩ. Once the whole-cell configuration was achieved, cells were clamped at a holding potential of −60 mV, and given a 50 ms ramp stimulation from −100 mV to +100 mV in every 5 s. All currents were filtered at 2 KHz (Axopatch 200B amplifier, Axon Instruments, Union City, Calif.) and digitized at 10 KHz for whole-cell recordings using Axon pCLAMP 10.4. Data were then analyzed using Clampfit 10.4 (Molecular Devices).
# HEK293 cell culture and transfection: Transfection of HEK293 cells was carried out using Plus reagent (Invitrogen) and Lipofectamine (Invitrogen) according to standard protocols. For heterologous expression of TRP channels in HEK293 cells, 1 μg of TRPC5-GFP, TRPC6-GFP or TRPC4-GFP plasmids were used to transfect HEK293 cells in a 3.5 cm petri dish where cells were allowed to grow to 80% confluence. Electrophysiology was carried out after 16 h incubation.
# caAT1R podocytes [1] = experiment: Cell viability assay in podocytes expressing caAT1R; format: cell-based, mouse; conditions: 30 μM ML204, 30 μM AC1903 or 50 μM NSC23677 for 36 hours
# Procedure: (§1) Podocyte culture and viral transduction: Immortalized mouse podocytes were cultured as previously described (10, 11). Podocyte viral transduction was performed using lentivirus as previously described (10, 11). Briefly, lentivirus production was carried out in HEK293T cells at 60% confluence, and viral particles were collected two days after transfection and purified by centrifugation at 1,000 rcf for 5 min. Purified lentivirus was frozen at −80° C. until further use. Podocytes were transduced with lentivirus after 7 days of differentiation, and assays were performed 5 days after viral transduction.
# (§2) For experiments in FIG. 4B/C, pCDNA3.1 AT1AR-Δ324 (rat AT1R NM_030985.4) containing HA tag (Plasmid #45635, Addgene) underwent site directed mutagenesis (Agilent) to generate the N111S substitution. For FIG. 4B, differentiated podocytes were transduced with the AT1A-N111S/Δ324 construct in six-well plates. Six days after viral transduction, cells were treated with either vehicle, 30 μM ML204, 30 μM AC1903 or 50 μM NSC23677 for 36 hours. Intracellular production of ROS was measured using a cell-permeable fluorescent dye, 5-(and-6)-chloromethyl-2′,7′-dichlorodihydrofluorescein diacetate, acetyl ester (CM-H2DCFDA, Molecular Probes). Cells were incubated with 5 μM CM-H2DCFDA at 37° C. for 45 min in Hanks' balanced salt solution (HBSS). Cells were then collected, resuspended in HBSS, stained with propidium iodide and the fluorescence intensity was assessed by flow cytometry using MACSQuant Analyzer (Miltenyi Biotec, Bergisch Gladbach, Germany). Living cells, which were PI negative, were selected by FACS gating and the fluorescence of CM-H2DCFDA was recorded on the FL-1 channel (525 nm). For FIG. 4C, differentiated podocytes were transduced with the AT1A-N111S/Δ324 construct in 96 well plates. Six days after transduction, the cells were treated with either vehicle, 30 μM ML204, 30 μM AC1903 or 50 μM NSC23677 for 36 hours. […]
# caAT1R podocytes [2] = experiment: ROS assay in caAT1R expressing podocytes; format: cell-based, mouse; conditions: 30 μM ML204, 30 μM AC1903 or 50 μM NSC23677 for 36 hours
# Procedure: as §1, §2
structure (smiles),measurement,setting,value
c1ccc(Cn2c(NCc3ccco3)nc3ccccc32)cc1 [AC1903],block of riluzole-activated TRPC5 whole-cell current,"TRPC5; 30 μM, HEK cells expressing TRPC5",blocked
same,IC50,TRPC5,14.7 µM
same,podocyte cell death on caAT1R expression,caAT1R podocytes [1],protected from cell death
same,caAT1R-induced ROS generation,caAT1R podocytes [2],blocked caAT1R-induced ROS generation
"Cc1cc(N2CCCCC2)nc2ccccc12 [ML204, reference compound]",IC50,TRPC5,13.6 µM
same,podocyte cell death on caAT1R expression,caAT1R podocytes [1],protected from cell death
same,caAT1R-induced ROS generation,caAT1R podocytes [2],blocked caAT1R-induced ROS generation
